The data set is described as follows: Storing crystalline Ascomycin Form A at 150° C. for 1 hour, solid form checked by PXRD/DSC. The class given is physicochemical. Particulars: solid sample, initial PXRD form A, remark wraps over r7-r8: 'Remained crystalline'. Here is the method: The crystalline forms of ascomycin, produced by the methods of the present invention can be analyzed by Powder X-ray diffraction (PXRD) was performed on an X-Ray powder diffractometer, ARL, θ-θ goniometer, Cu-tube, solid state detector with Peltier cooling. The sample holder was a round standard aluminum sample holder with round zero background. Scanning parameters: Range: 2-40 deg.2θ, Continuous Scan, Rate: 3 deg./min.
Ascomycin crystalline forms can also be analyzed by thermal analysis, which can be carried out by […] scanning calorimetry (DSC) and by thermogravimetric analysis (TGA). DSC thermograms can be obtained on a DSC822^e Mettler Toledo instrument (Advanced Instruments, San Juan, Puerto Rico). Sample weight: 3-5 mg; Heating rate: 10° C./min; Number of holes in the crucible: 3. TGA thermograms can be obtained on a Mettler TGA/SDTA 851 instrument (Advanced Instruments, San Juan, Puerto Rico) using a standard Allumina pan. Sample weight: 7-15 mg; Heating rate: 10° C./min.
Starting from Form A having the properties listed in Table 1, incubation at 150° C. for 1 hour produced Ascomycin Form C.

SMILES strings stand for the structures.

The text below walks through data of patent US20060155119A1, “Ascomycin crystalline forms and preparation thereof” (priority 2004, published 2006).

Take `CC[C@@H]1/C=C(\C)C[C@H](C)C[C@H](OC)[C@H]2O[C@@](O)(C(=O)C(=O)N3CCCC[C@H]3C(=O)O[C@H](/C(C)=C/[C@@H]3CC[C@@H](O)[C@H](OC)C3)[C@H](C)[C@@H](O)CC1=O)[C@H](C)C[C@@H]2OC` [Form A, Ascomycin]: the “remarks after storing at 150° C. for 1 hour” value was “Remained”.
